Reference: PMC10664145, “Urinary Excretion of Mercapturic Acids of the Rodent Carcinogen Methyleugenol after a Single Meal of Basil Pesto: A Controlled Exposure Study in Humans” (Chemical Research in Toxicology, 2023)
Values joined by “and” are separate entries in the source; they are usually repeats but may differ in a detail not shown here. Identical values can stand only once. Blank lines part the entries; values can stand above or below the molecule they belong to.

Assays:
[1] = design: method as in PMID 22445790; settings: cited from earlier work
SULT1A1 = test system: SULT1A1; design: method as in PMID 22337896; settings: cited from earlier work
[2] = range over 12 experimental settings; ME 100, 200 or 500 μM; calculated from published data, molar units; cited from earlier work
[3] = range over five models (male and female Sprague–Dawley and Fischer 344 rats, pooled human); cited from earlier work
DNA [4] = settings: cited from earlier work
[5] = cited from earlier work; for urinary metabolite of ME, share of the dose / urinary metabolite of ME in urine treated with glucuronidase/sulfatase, share of the dose: rat urine 24 h after oral ME 200 mg/kg
human topoisomerase I = test system: human topoisomerase I; design: method as in PMID 26542539; settings: cited from earlier work
[6] = design: method as in PMID 22610610, PMID 22445790; settings: calculated from published data; cited from earlier work
[7] = Controlled exposure study in humans: urinary excretion of E-3′-MEMA after a meal with 100 g basil pesto (1.7 mg ME), isotope-dilution LC–MS/MS; assay type: in vivo, human
Procedure: Based on the findings of the pilot investigation, a more comprehensive (“main”) exposure study was performed. The study was conducted according to the guidelines of the Declaration of Helsinki and was approved by the ethics committee of the University of Potsdam under application number 4/2019. It was carried out at the Institute of Nutritional Science (University of Potsdam), where 12 healthy volunteers (six men and six women) with conventional nutrition habits were recruited. All participants gave written informed consent. The mean age of the test group was 31.6 ± 4.6 years (range: 25–42 years), and the mean body weight was 76.4 ± 10.0 kg (range: 61–94 kg). To guarantee that urinary excretion of MEMA was solely attributed to the consumption of the basil pesto served, all volunteers were asked to avoid ME-containing food 2 days before and after the consumption of the study meal. Therefore, they received an information sheet specifying potential ME sources. After overnight fasting, the participants consumed a meal comprising 100 g of self-made pesto containing 30 g of basil (equal to 1.7 mg of ME; recipe see Table S2) and 200 g of pasta. No further restrictions were exerted. To ensure proper urine sampling, the volunteers were encouraged to drink beverages as they preferred. Urine was collected quantitatively in capped polyethylene containers prior to the controlled exposure and during the following intervals: 0–1, 1–2, 2–3, 3–4, 4–5, 5–6, 6–8, 8–10, 10–12, 12–24, 24–36, and 36–48 h. After the volumes were measured, the urine was aliquoted in two 15 mL reaction tubes per time interval and stored at −20 °C until analysis.
“System 2” was configured as follows: an HPLC 1100 (Agilent Technologies) was connected to a QTrap6500 triple quadrupole-hybrid ion trap mass spectrometer (Sciex, Darmstadt, Germany) equipped with an electrospray ionization source operating in negative mode. The chromatographic separation of the analytes was performed by ion pair chromatography on a Nucleoshell RP 18plus column (2.0 × 150 mm, 2.7 μm; Macherey-Nagel). The eluents were water containing 10 mM tributylamine and 10 mM acetic acid (eluent A) and acetonitrile (eluent B). The flow rate of the gradient (0 → 1 min: 2% eluent B; 1 → 8 min: 2 → 15% eluent B; 8 → 17.5 min: 15 → 35% eluent B; 17.5 → 18 min: 35 → 100% eluent B; 18 → 20 min: 100% eluent B; 20 → 20.1 min: 100 → 2% eluent B; 20.1 → 23 min: 2% eluent B) was 0.5 mL/min. […] The MRM mode was employed for quantitative analysis with the declustering potential and the entrance potential at −30 and −10 V, respectively. For the quantifier mass transitions of E-3′-MEMA (m/z 338.1 → 209.1) and d6-E-3′-MEMA (m/z 344.1 → 215.1), a collision energy of −20 V and a cell exit potential of −5 V were used. […]

[8] = rat, in vivo
Procedure: The metabolism of ME and its isomer, MIE, was also studied in rats in vivo.[27] Urine collected over a period of 24 h after oral administration of ME (200 mg/kg) contained a total of ten metabolites (each accounting for ≥1% of the dose); together, they represented 95% of the dose. Among the microsomal metabolites described in the preceding sections, only 6-hydroxy-ME was detected in native urine (2% of the dose). In human liver microsomes, it contributed 0–3.4% to the metabolism of ME, less than that in liver microsomes from other species [calculated from data published by Cartus et al.[11] and Al-Subeihi et al.[26]]. For this reason, and as 6-hydroxy-ME is not involved in bioactivation, it is not suited as a biomarker. Eugenol and chavibetol were found in urine treated with glucuronidase/sulfatase at levels of 7 and 4% of the dose, respectively. Obviously, these metabolites are not suited as biomarkers for exposure to ME, as they may also be found after exposure to eugenol and chavibetol. […] Although in this study, 95% of the dose of ME was recovered as metabolites in urine, metabolites were additionally detected in bile. […] Glutathione (GSH) conjugates and other metabolites of the mercapturic acid pathways were not detected in that study; however, the method used (extraction of the acidified urine or bile with ether followed by gas chromatography) was not suitable for their detection.

[9] = human, in vivo; cited from earlier work
human CYPs = settings: cited from earlier work
[10] = test system: primary cultures of rat hepatocytes; settings: cited from earlier work
DNA [11] = settings: cited from earlier work; remark: listed apart in the source
[12] = n = 1; cited from earlier work

Structure (SMILES): C=CC(O)c1ccc(OC)c(OC)c1 (stereo not drawn) [1′-hydroxy-ME]
catalytic efficiency of glucuronidation, factor lower in human than in male rat liver microsomes [1]: 125 times
efficiency of human SULT1A1 in activation to a mutagen relative to its mouse orthologue (SULT1A1): about 3 times
contribution of the metabolite to the metabolism of ME (sum of all metabolites) [2]: 36.4–69.4%
contribution of the metabolite to ME metabolism calculated from Vmax values [3]: 36.2–50.1%
DNA adduct levels in mice carrying a human SULT1A1–1A2 transgene compared to wild-type mice (DNA [4]): nine times higher
potency in induction of hepatomas and formation of DNA adducts in mouse liver, compared with ME (DNA [4]): more potent than ME

Structure (SMILES): COc1ccc(CC(O)C(=O)O)cc1OC (stereo not drawn) [2-hydroxy-3-(3,4-dimethoxyphenyl)propionic acid]
urinary metabolite of ME, share of the dose [5]: 20 % of the dose

Structure (SMILES): COc1ccc(CC(O)CO)cc1OC (stereo not drawn) [2′,3′-dihydroxy-2′,3′-dihydro-ME]
contribution of the metabolite to ME metabolism calculated from Vmax values [3]: 21.8–44.0%

Structure (SMILES): Cc1ccc(CC(=O)O)cc1C [3,4-Dimethylphenylacetic acid]
urinary metabolite of ME, share of the dose [5]: 3 % of the dose

Structure (SMILES): COc1ccc(C(=O)O)cc1OC [3,4-dimethoxybenzoic acid]
urinary metabolite of ME, share of the dose [5]: 2 % of the dose

Structure (SMILES): COc1ccc(C(=O)NCC(=O)O)cc1OC [3,4-dimethoxybenzoylglycine]
urinary metabolite of ME, share of the dose [5]: 30 % of the dose

Structure (SMILES): COc1ccc(C=CC(=O)NCC(=O)O)cc1OC [3,4-dimethoxycinnamoylglycine]
urinary metabolite of ME, share of the dose [5]: 24 % of the dose

Structure (SMILES): COc1ccc(C(O)CC(=O)O)cc1OC (stereo not drawn) [3-hydroxy-3-(3,4-dimethoxyphenyl)propionic acid]
urinary metabolite of ME, share of the dose [5]: 2 % of the dose

Structure (SMILES): COc1ccc(C=CCO)cc1OC [3′-hydroxy-MIE, 3′-hydroxymethylisoeugenol]
contribution of the metabolite to the metabolism of ME (sum of all metabolites) [2]: 10.4–42.4%
contribution of the metabolite to ME metabolism calculated from Vmax values [3]: 10.3–12.9%
share of the dose excreted as urinary metabolites that appeared to be formed via 3′-hydroxy-MIE ([5]; rats, ME 200 mg/kg): 62 % of the dose
share of the urinary metabolites that appeared to be formed via 3′-hydroxy-MIE ([5]; rats, ME 200 mg/kg): 65%

Structure (SMILES): COc1ccc(/C=C/C=O)cc1OC [3′-oxo-MIE]
effect on human topoisomerase I activity in vitro (human topoisomerase I): inhibit
contribution of the metabolite to the metabolism of ME (sum of all metabolites) [2]: 0–6.8%

Structure (SMILES): C=CCc1cc(OC)c(OC)cc1O [6-hydroxy-ME]
contribution of 6-hydroxy-ME to the metabolism of ME in human liver microsomes [6]: 0–3.4%
contribution of the metabolite to the metabolism of ME (sum of all metabolites) [2]: 0–27.4%
contribution of the metabolite to ME metabolism calculated from Vmax values [3]: 3.9–4.7%
urinary metabolite of ME, share of the dose [5]: 2 % of the dose

total amount of E-3′-MEMA excreted, range among 12 participants ([7]; 1.7 mg ME in basil pesto): 3–274 ng/person
interindividual variability of E-3′-MEMA excretion, factor between highest and lowest values ([7]; 12 participants): ~80
Structure (SMILES): COc1ccc(C=CCSC[C@H](NC(C)=O)C(=O)O)cc1OC [E-3′-MEMA, N-acetyl-S-[3′-(3,4-dimethoxyphenyl)allyl]-L-cysteine]
E-3′-MEMA ratio of ME intake ([7]; individual participant, urine 0–48 h after 100 g basil pesto containing 1.7 mg ME): 33 ppm and 20 ppm and 85 ppm and 14 ppm and 1 ppm and 2 ppm and 4 ppm and 16 ppm and 6 ppm and 11 ppm
E-3′-MEMA total urinary excretion ([7]; individual participant, urine 0–48 h after 100 g basil pesto containing 1.7 mg ME, sum of all samples with concentration > LOD): 105 ng and 63 ng and 274 ng and 44 ng and 3 ng and 6 ng and 12 ng and 51 ng and 18 ng and 36 ng and 20 ng and 52 ng

Structure (SMILES): C=CCc1ccc(O)c(OC)c1 [Eugenol, eugenol]
urinary metabolite of ME in urine treated with glucuronidase/sulfatase, share of the dose [5]: 7 % of the dose

share of the dose of ME converted via 1′-sulfooxy-ME to 3′-hydroxy-MIE (suggested) [8]: 14.3–41.7%
Structure (SMILES): C=CCc1ccc(OC)c(OC)c1 [ME, Methyleugenol]
reduction of DNA adduct formation by ME in mouse liver by genetic knockout of SULT1A1 (DNA [4]; mouse, in vivo): 99%
half-life of elimination of ME from serum [9]: about 90 min
time of peak serum levels of ME after the meal [9]: 5 min
contribution of 1′-hydroxylation to hepatic ME metabolism at low substrate concentration (human CYPs): 38.4%
contribution of 2′,3′-epoxidation to hepatic ME metabolism at low substrate concentration (human CYPs): 58.8%
induction of UDS by ME in the presence of the SULT1 inhibitor pentachlorophenol [10]: fully suppressed

Structure (SMILES): COc1ccc(C=CCNc2nc3c(ncn3[C@H]3C[C@H](O)[C@@H](CO)O3)c(=O)[nH]2)cc1OC [N^2-(methylisoeugenol-3′-yl)-2′-deoxyguanosine]
human lung samples with DNA adducts present (DNA [11]): 10 out of 10
human liver samples with DNA adducts present (DNA [11]; surgical human liver samples): 150 out of 151

Structure (SMILES): C=CCc1ccc(OC)c(O)c1 [chavibetol]
urinary metabolite of ME in urine treated with glucuronidase/sulfatase, share of the dose [5]: 4 % of the dose

Structure (SMILES): COc1ccc(C=CCSC[C@H](NC(C)=O)C(=O)O)cc1 [mercapturic acid of estragole, N-acetyl-S-[3′-(4-methoxyphenyl)allyl]-L-Cys]
urinary excretion of the mercapturic acid as share of intake [12]: 13.2 ppm
